Results reported in patent US12465648B2, “Heterobifunctional compounds as degraders of HPK1” (ICAHN SCHOOL OF MEDICINE AT MOUNT SINAI, priority 2019, dated 2025).

Legend:
HPK1 [1] = target: T1, HPK1 (Homo sapiens, UniProt Q92918); assay: Western blot analysis of endogenous HPK1 level in Jurkat T cells; format: cell-based; settings: for reducing HPK1 protein levels: characterization of exemplary degraders (FIGS. 1-14)
T1 construct: endogenous in cells; host or cells: Jurkat T cells

CD4+ T cells = assay: CD28-independent IL-2 production by CD4+ T cells; format: cell-based; settings: fixed concentration of plate-bound antibody, varying concentrations of soluble anti-CD28 mAb (FIG. 6)
primary murine T cells = assay: IL-2 production by primary murine T cells; format: cell-based, mouse
Description: (§1) EXAMPLE 348. Several compounds according to the present invention employing the indolin-2-one HPK1 binding base, (which henceforth shall be referred to as the HC58 series, the HC65 series and the HC75 series) were assessed on their abilities to degrade HPK1 and produce an elevated IL-2 response profile upon stimulation by anti-CD3- and anti-CD28-mAb-mediated (CD3XCD28) stimulation (FIGS. 1-4). The elevated IL-2 response profile induced by TCR engagement after exposure to HC58 series of HPK1 degraders is shown in FIG. 1. […] A select sub-set of the lead HPK1 degraders from the HC58 series were further characterized to determine whether they could degrade primary mouse T cells.

[2] = system: CD4+ primary murine T cells; assay: CD28-independent IL-2 production by CD4+ primary murine T cells (IL-2 ELISA); format: cell-based, mouse; settings: 500 nM, plate-bound anti-CD3 mAb 5 μg/mL, varying soluble anti-CD28 mAb
Description: EXAMPLE 34. I was observed that HPK1^−/− T cells, unlike their wild type counterparts, could readily produce IL-2 in response to CD3 □ crosslinking alone (data not shown). To assess whether HPK1 degraders could confer the same ability to produce IL-2 in a CD28-independent manner, CD4^+ primary murine T cells prepared as described in FIG. 5 were treated with 500 nM of HC58-75 HPK1 degrader or DMSO or Pomalidomide as controls. Their abilities to produce IL-2 in response a fixed concentration of plate-bound anti-CD3[…] mAb (5 μg/mL) in conjunction with varying soluble concentration of anti-CD28 mAb was then assessed.

HPK1 [3] = target: T2, HPK1 (Mus musculus, UniProt P70218); assay: HPK1 degradation in primary mouse T cells; format: cell-based; settings: 300 nM
T2 construct: HPK1 degraders could effectively degrade endogenous HPK1 in murine T cells; endogenous in cells; host or cells: primary mouse T cells
T2 sequence (P70218 1-827): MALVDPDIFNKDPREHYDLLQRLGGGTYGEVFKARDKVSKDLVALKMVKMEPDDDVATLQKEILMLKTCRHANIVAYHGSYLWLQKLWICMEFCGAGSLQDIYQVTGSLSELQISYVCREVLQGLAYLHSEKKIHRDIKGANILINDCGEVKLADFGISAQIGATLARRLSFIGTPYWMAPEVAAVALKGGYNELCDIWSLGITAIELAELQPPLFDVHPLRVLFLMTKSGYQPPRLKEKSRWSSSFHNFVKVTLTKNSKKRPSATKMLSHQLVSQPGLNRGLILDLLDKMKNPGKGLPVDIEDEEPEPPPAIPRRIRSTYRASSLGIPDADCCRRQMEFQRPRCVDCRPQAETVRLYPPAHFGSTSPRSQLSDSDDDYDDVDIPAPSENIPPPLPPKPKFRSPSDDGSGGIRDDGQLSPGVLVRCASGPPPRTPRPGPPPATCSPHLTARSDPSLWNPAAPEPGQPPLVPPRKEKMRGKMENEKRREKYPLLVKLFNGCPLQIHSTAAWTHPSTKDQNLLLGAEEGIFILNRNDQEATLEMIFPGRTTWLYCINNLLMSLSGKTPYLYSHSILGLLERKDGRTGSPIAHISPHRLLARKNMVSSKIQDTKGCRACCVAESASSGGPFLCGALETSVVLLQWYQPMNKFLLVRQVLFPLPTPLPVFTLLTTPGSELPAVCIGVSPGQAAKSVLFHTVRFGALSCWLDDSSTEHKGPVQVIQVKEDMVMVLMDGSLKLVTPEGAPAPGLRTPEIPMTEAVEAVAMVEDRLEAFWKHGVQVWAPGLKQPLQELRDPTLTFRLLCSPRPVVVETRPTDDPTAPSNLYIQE
Description: as §1
EXAMPLE 353. HPK1 is expressed in all hematopoietic cells examined to date, including T cells, B cells, dendritic cells and neutrophils. Because the breath of therapeutic approaches might involve the use of Chimeric Antigen Receptor (CAR) T cells, dendritic cells, TCR transgenic T cells and Tumor Infiltrating Lymphocytes (TILs), selected HPK1 degraders were evaluated to determine whether they could degrade HPK1 effectively in some of these cell types. […] Potent degradation of HPK1 by HPK1 degraders was also observed in the human DC1 dendritic cells.

Jurkat T cells = assay: IL-2 production by Jurkat cells on CD3XCD28 stimulation (IL-2 ELISA); format: cell-based, human; settings: wider ranges of compound concentrations
Description: as §1
EXAMPLE 351. […] Furthermore, compound HC58-78 and HC90-50 were also assessed for their abilities to enhance the CD3XCD28-induced IL-2 response by primary human PBMC (FIG. 10).
For the synthesis of intermediates and examples (1-89) below, HPLC spectra for all compounds were acquired using an Agilent 1200 Series system with DAD detector. […] Clone E6-1 cells is a preferred cellular platform for studying T cell activation in response to T cell receptor engagement because it produces the cytokine IL-2, which could be used as proxy readout for the level of T cell activation. […]

human PBMCs = assay: Intracellular IFNγ and TNFα staining of human PBMC (FACS); format: cell-based; settings: in combination with blinatumomab
From the text: EXAMPLE 355. One of the mechanisms employed by PBMC to kill their target cells is by releasing IFNγ and TNFα production. These inflammatory cytokines are known have potent cytolytic effects on cancer cells. […] Mediated PBMC killing of the Raji cells is most evident at PBMC:Raji ratio of 5:1 (FIG. 13).
To determine the number of CD19^+ Raji cells killed by human PBMC that were activated by the Blinatumomab-mediated activation, we used CountBright cell counting beads to estimate the number of cells remained after 72 hours of co-culturing of PBMC and Raji. As for the intracellular staining of the TNFα and the IFNγ, the standard para-formaldehyde-based “fix and perm” procedure was used in order to quantitate the amount of intracellular cytokine trapped inside the cells by brefeldin A. FACS analysis of stained cells is performed by BD's LSR II FACS.

T1 sequence (Q92918 whole entry): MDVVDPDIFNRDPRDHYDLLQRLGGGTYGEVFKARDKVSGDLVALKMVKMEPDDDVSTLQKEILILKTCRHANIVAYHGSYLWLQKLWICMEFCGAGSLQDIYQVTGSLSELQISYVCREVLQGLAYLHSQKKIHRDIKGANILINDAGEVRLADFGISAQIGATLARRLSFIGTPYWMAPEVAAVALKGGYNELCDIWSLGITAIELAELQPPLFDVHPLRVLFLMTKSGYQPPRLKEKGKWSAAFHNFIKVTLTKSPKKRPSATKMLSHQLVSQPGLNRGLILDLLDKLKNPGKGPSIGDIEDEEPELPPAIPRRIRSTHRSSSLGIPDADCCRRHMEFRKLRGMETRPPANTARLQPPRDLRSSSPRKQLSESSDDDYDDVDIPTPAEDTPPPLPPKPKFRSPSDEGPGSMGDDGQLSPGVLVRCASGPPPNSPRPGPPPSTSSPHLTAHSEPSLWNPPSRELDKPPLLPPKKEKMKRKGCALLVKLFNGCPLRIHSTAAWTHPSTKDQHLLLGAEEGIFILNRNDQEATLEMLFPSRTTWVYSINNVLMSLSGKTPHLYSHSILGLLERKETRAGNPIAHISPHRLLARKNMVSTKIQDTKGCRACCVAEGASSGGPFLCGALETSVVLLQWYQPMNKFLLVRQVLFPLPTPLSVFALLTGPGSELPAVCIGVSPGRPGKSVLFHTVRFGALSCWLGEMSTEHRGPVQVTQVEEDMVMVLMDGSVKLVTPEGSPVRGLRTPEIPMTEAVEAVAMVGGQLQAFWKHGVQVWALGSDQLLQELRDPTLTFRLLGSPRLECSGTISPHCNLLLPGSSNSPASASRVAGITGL

SMILES | reducing HPK1 protein levels (HPK1 [1]) | IL-2 response profile, rank within the HC90 series (Jurkat T cells) | further results
Cc1[nH]c(/C=C2\C(=O)Nc3ccc(F)cc32)c(C)c1C(=O)NCCCN1CCN(C(=O)CCCCNc2cccc3c2C(=O)N(C2CCC(=O)NC2=O)C3=O)CC1 (stereo not shown) [HC58-38, (Z)—N-(3-(4-(5-((2-(2,6-dioxopiperidin-3-yl)-1,3-dioxoisoindolin-4-yl)amino)pentanoyl)piperazin-1-yl)propyl)-5-((5-fluoro-2-oxoindolin-3-ylidene)methyl)-2,4-dimethyl-1H-pyrrole-3-carboxamide] | especially effective in reducing HPK1 protein levels |  | 
Cc1[nH]c(/C=C2\C(=O)Nc3ccc(F)cc32)c(C)c1C(=O)NCCCN1CCN(CC(=O)NCCCCCNc2cccc3c2C(=O)N(C2CCC(=O)NC2=O)C3=O)CC1 (stereo not shown) [HC58-75, (Z)—N-(3-(4-(2-((5-((2-(2,6-dioxopiperidin-3-yl)-1,3-dioxoisoindolin-4-yl)amino)pentyl)amino)-2-oxoethyl)piperazin-1-yl)propyl)-5-((5-fluoro-2-oxoindolin-3-ylidene)methyl)-2,4-dimethyl-1H-pyrrole-3-carboxamide] | especially effective in reducing HPK1 protein levels |  | endogenous level of HPK1 (HPK1 [1]; Jurkat T cells, multiple day post exposure (FIG. 3)): could reduce the endogenous level of HPK1; CD28-independent IL-2 production (CD4+ T cells): CD28-independent IL-2 production; IL-2 production compared with the DMSO-treated counterpart (primary murine T cells): produced more IL-2 than the DMSO-treated counterpart; IL-2 production without CD28 co-receptor engagement [2]: could produce IL-2 without the help of CD28 co-receptor engagement
Cc1[nH]c(/C=C2\C(=O)Nc3ccc(F)cc32)c(C)c1C(=O)NCCCN1CCN(CC(=O)NCCCCCCNc2cccc3c2C(=O)N(C2CCC(=O)NC2=O)C3=O)CC1 (stereo not shown) [HC58-76, (Z)—N-(3-(4-(2-((6-((2-(2,6-dioxopiperidin-3-yl)-1,3-dioxoisoindolin-4-yl)amino)hexyl)amino)-2-oxoethyl)piperazin-1-yl)propyl)-5-((5-fluoro-2-oxoindolin-3-ylidene)methyl)-2,4-dimethyl-1H-pyrrole-3-carboxamide] | especially effective in reducing HPK1 protein levels |  | degradation of HPK1 protein in primary T cells compared with Jurkat T cells (HPK1 [3]): could degrade more HPK1 protein in primary T cells than in Jurkat T cells
COc1cccc(F)c1-c1ncc2[nH]nc(-c3ccc(N4CCN(C(=O)CCNc5cccc6c5C(=O)N(C5CCC(=O)NC5=O)C6=O)CC4)cc3)c2n1 (stereo not shown) [HC90-50, 2-(2,6-dioxopiperidin-3-yl)-4-((3-(4-(4-(5-(2-fluoro-6-methoxyphenyl)-1H-pyrazolo[4,3-d]pyrimidin-3-yl)phenyl)piperazin-1-yl)-3-oxopropyl)amino)isoindoline-1,3-dione] | especially effective in reducing HPK1 protein levels | top two compounds from the HC90 series | percentage of human PBMCs that express high level of IFNγ and TNFα (human PBMCs): significantly increased
COc1cccc(F)c1-c1ncc2[nH]nc(-c3ccc(N4CCN(C(=O)CCCNc5cccc6c5C(=O)N(C5CCC(=O)NC5=O)C6=O)CC4)cc3)c2n1 (stereo not shown) [HC90-51, 2-(2,6-dioxopiperidin-3-yl)-4-((4-(4-(4-(5-(2-fluoro-6-methoxyphenyl)-1H-pyrazolo[4,3-d]pyrimidin-3-yl)phenyl)piperazin-1-yl)-4-oxobutyl)amino)isoindoline-1,3-dione] | especially effective in reducing HPK1 protein levels | top two compounds from the HC90 series | 
